Laboratory results published in patent USRE38169E1, “Hyperstabilizing antisense nucleic acid binding agents” (priority 1993, dated 2003).

Experiments:
Oligo(dA)-Oligo(dT) = assay: Binding of drug to duplex (NACS column, A365/A260); conditions: for Final D/N (CC-1065/nucleotide) Bound to Duplex: Oligo(dA)-Oligo(dT)
Description: (§1) Oligodeoxyribonucleotides were obtained by chemical synthesis through standard techniques on an automated synthesizer located in the Department of Veterinary Microbiology and Parasitology at Louisiana State University. Antisense MP and PS oligonucleotides were obtained from commercial sources, as was synthetic sense RNA. Poly(rA) was obtained from Sigma Chemical Co. CC-1065 was obtained from the Upjohn Company. Oligonucleotides (0.075 μmol-P each) were mixed in 0.36 ml 0.01 M Na cacodylate buffer, pH 7.2, with CC-1065 in dimethyl formamide (0.04 ml), or with dimethylformamide only. (Note that “μmol-P” denotes μmoles of phosphate; i.e., μmoles of nucleotide bases, rather than of oligonucleotides per se.) Incubations of complementary strands, with or without drug, were carried out at 37° C. for 4 hr. In the initial experiments, unbound drug was separated from nucleotide duplexes by ethanol precipitation. Equivalent results were obtained by trapping the oligonucleotides and CC-1065 on NACS-52 columns, and washing first with low-salt buffer and then with buffer containing 1M NaCl. Unbound CC-1065 was completely retained on the column. […] Samples prepared in this manner could be directly used for determination of binding of the drug to the nucleic acid (as measured by the A365/A260 ratio), with the extinction of CC-1065 absorbance at 365 nm taken as 48,000, and the extinction of the nucleic acid absorption at 260 nm based on its composition. Similar approaches were used with the drug U-71,184, with an assumed extinction of 32,000 at 365 nm.
(§2) When methyl phosphonate and synthetic RNA were used, the purities of the crude oligonucleotides were taken to be about 30%, based on the data sheet prepared by the supplier. (The remainder comprised primarily truncated sequences.) Appropriate excess amounts of these agents were included in the reactions to ensure helix formation. The corresponding sense or antisense oligonucleotides were maintained at 0.075 μmol-P in the reaction. […] Unpurified materials were used in these preliminary studies because of the relatively high cost of purified oligoribonucleotides. The majority of the contributions to A260 for these samples should be due to material that was not duplexed.
(§3) Table 1 summarizes binding data obtained from incubations of CC-1065 with nucleotides at greater than stoichiometric levels; the levels used in these experiments were 1 drug molecule/10 nucleotide residues, which is equivalent to 4 drug molecules/20-mer duplex. […] There seemed to be no difference in drug binding between antisense oligonucleotides with a PO and those with a PS backbone. Again, the 5′-AGTTA-3′ sequence on the sense strand was presumably the primary target, and the 3′-AAGTA-5′ on the antisense probe was presumably the secondary target.

Poly(rA)-Oligo(dT) = assay: Binding of drug to duplex (NACS column, A365/A260); conditions: for Final D/N (CC-1065/nucleotide) Bound to Duplex: Poly(rA)-Oligo(dT)
Description: as §1, §2, §3

[1] = test system: single-stranded materials; assay: Binding of drug to single strands; conditions: under the conditions used
Text: as §2

[2] = test system: DNA sense (SEQ ID NO. 1) / DNA-MP antisense duplex (PO-MP); assay: Duplex strand separation temperature (Tm); format: binding, equine infectious anemia retrovirus
Description: (§4) Samples for determining Tm were also obtained by the above procedures. […] Thus the effects of this agent on Tm were carried out with Distamycin in solution with the duplexes tested.
(§5) Tm's were determined on a Gilford 2400 Spectrophotometer set at 260 nm, with a 4-chamber Peltier-based temperature controller. Temperature was ramped linearly at 0.5° C./min. Absorbance data were acquired with a 12-bit A/D converter, and data were processed with Lotus 123W and SigmaPlot software. Tm values were determined from the plots as the midpoint of the thermal transitions.

[3] = test system: DNA sense (SEQ ID NO. 1) / DNA-PO antisense duplex (PO-PO); assay: Duplex strand separation temperature (Tm); format: binding, equine infectious anemia retrovirus
Description: as §4, §5

[4] = test system: DNA sense (SEQ ID NO. 1) / DNA-PS antisense duplex; assay: Duplex strand separation temperature (Tm); format: binding, equine infectious anemia retrovirus
Description: as §4, §5

Poly rA - Oligo dT (PO) = assay: Duplex strand separation temperature (Tm); format: binding
Description: as §4, §5

calf thymus DNA = conditions: reported, cited from earlier work
[5] = saturation, initial CC-1065/nucleotide 0.1, 37° C., 4 hr
[6] = CC-1065 initial D/N = 0.1, minimum Tm estimate

Compound: COc1c(O)c2c(c3cc(C(=O)N4CCc5c4c(O)c(OC)c4[nH]c(C(=O)N6CC7CC78C6=CC(=O)c6[nH]cc(C)c68)cc54)[nH]c13)CCN2C(N)=O (stereo not drawn) [CC-1065]
- Final D/N (CC-1065/nucleotide) Bound to Duplex (Oligo(dA)-Oligo(dT); Initial D/N 0.01): 0.008 ± 0.001
- Final D/N (CC-1065/nucleotide) Bound to Duplex (Oligo(dA)-Oligo(dT); Initial D/N 0.025): 0.018 ± 0.0006
- Final D/N (CC-1065/nucleotide) Bound to Duplex (Oligo(dA)-Oligo(dT); Initial D/N 0.04): 0.028 ± 0.006
- Final D/N (CC-1065/nucleotide) Bound to Duplex (Oligo(dA)-Oligo(dT); Initial D/N 0.065): 0.058 ± 0.002
- Final D/N (CC-1065/nucleotide) Bound to Duplex (Oligo(dA)-Oligo(dT); Initial D/N 0.10): 0.063 ± 0.002
- Approx. No. CC-1065 Bound/20 Base Pairs (Oligo(dA)-Oligo(dT); [5]): ~2.5
- Final D/N (CC-1065/nucleotide) Bound to Duplex (Poly(rA)-Oligo(dT); Initial D/N 0.01): 0.003 ± 0.002
- Final D/N (CC-1065/nucleotide) Bound to Duplex (Poly(rA)-Oligo(dT); Initial D/N 0.025): 0.008 ± 0.004
- Final D/N (CC-1065/nucleotide) Bound to Duplex (Poly(rA)-Oligo(dT); Initial D/N 0.04): 0.011 ± 0.004
- Final D/N (CC-1065/nucleotide) Bound to Duplex (Poly(rA)-Oligo(dT); Initial D/N 0.065): 0.022 ± 0.004
- Final D/N (CC-1065/nucleotide) Bound to Duplex (Poly(rA)-Oligo(dT); Initial D/N 0.10): 0.028 ± 0.001
- Approx. No. CC-1065 Bound/20 Base Pairs (Poly(rA)-Oligo(dT); [5]): ~1
- Binding to single-stranded materials [1]: found not to bind to single-stranded materials
- Tm ([2]; CC-1065 initial D/N = 0.025): 73.0 ± 2.0^4 °C
- Tm ([2]; CC-1065 initial D/N = 0.1): 74.0 ± 1.0^4 °C
- Duplex Strand Separation Temperature ([2]; DNA / DNA-MP, drug-bound duplex (Table 6)): 74.0 ± 1.04
- Tm Elevation ([2]; PO-MP, highest level of binding obtained): 21.5 °C
- Tm ([3]; CC-1065 initial D/N = 0.025, 1M NaCl eluate): 81.7 ± 0.6^4 °C
- Tm ([3]; CC-1065 initial D/N = 0.1, minimum Tm estimate (melting not completed)): ≥ 85.3 ± 2.3^4,5 °C
- Duplex Strand Separation Temperature ([3]; DNA / DNA-PO, drug-bound duplex (Table 6)): ≥ 85.3 ± 2.3^4
- Tm Elevation ([3]; PO-PO, highest level of binding obtained): 17.3 °C
- Tm ([4]; CC-1065 initial D/N = 0.025): 81.3 ± 2.3^4 °C
- Tm [4, 6]: ≥ 84.7 ± 1.5^4,5 °C
- Duplex Strand Separation Temperature ([4]; DNA / DNA-PS, drug-bound duplex (Table 6)): ≥ 84.7 ± 1.5^4
- Tm Elevation ([4]; PS-PS, highest level of binding obtained): 20.5 °C
- Tm, lower transition of biphasic curve (Poly rA - Oligo dT (PO); CC-1065 initial D/N = 0.025, regions lacking CC-1065): 51 °C
- Tm, higher transition of biphasic curve (Poly rA - Oligo dT (PO); CC-1065 initial D/N = 0.025, regions with CC-1065): 76 °C
- Tm (Poly rA - Oligo dT (PO); [6]): ≥ 81.3 ± 0.6^4,5 °C
- Duplex Strand Separation Temperature (Poly rA - Oligo dT (PO); Poly rA / Oligo dT (PO), drug-bound duplex (Table 6)): ≥ 81.3 ± 0.6^4
- Stabilization of duplexes (Poly rA - Oligo dT (PO); poly(rA)-oligo(dT)): strong stabilization
- Tm Elevation (Poly rA - Oligo dT (PO); rA-dT, highest level of binding obtained): 28.3 °C
- Tm (calf thymus DNA; CC-1065 bound): ~100 °C
- Increase in Tm (calf thymus DNA; under the conditions of the experiment): over 30 °C
